In patent US6479487B1, “6, 9-disubstituted 2-[trans-(4-aminocyclohexyl)amino] purines” (Aventis Pharmaceuticals Inc., priority 1998, dated 2002):
pIC50: −log10 of the molar value. Several values for one entry are separate records, joined by “and”; a condition that tells them apart may be missing. Equal entries are not always repeated. Structures can show the parent of a compound that is named as a salt. Where two headings read alike, the source gives them in different places.

Legend:
MDA-MB-435 = assay: In vitro tumor cell proliferation, MDA-MB-435; type: cell-based; settings: values given with an undefined *, read-out: In vitro Tumor Cell Proliferation (IC50, μM) Breast MDA-MB-435
Summary of the method: (§1)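 Cells seeded overnight at 37° C, then exposed to drug diluted in medium; at 3 days medium and drug replenished for another 4 days. Growth read by sulforhodamine B staining after TCA fixation; alternatively by CyQUANT, with plates frozen at −80° C after 3 days of drug.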

DMS-114 = assay: In vitro tumor cell proliferation, DMS-114; type: cell-based, human; settings: many values given with an undefined *, read-out: In vitro Tumor Cell Proliferation (IC50, μM) Lung DMS-114
Summary of the method: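 Human small cell lung carcinoma DMS-114 cells plated overnight, then drug-treated for 3 days, medium and drug renewed, and incubated 4 more days. Growth read by sulforhodamine B staining after TCA fixation; alternatively by CyQUANT after 3 days' drug exposure and freezing at −80 °C.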

cdk2/cyclin E = target: T1, cdk2/cyclin E (Homo sapiens, UniProt P24941); assay: Cyclin-Dependent Kinase 2 Assay (cdk2/cyclin E, GST-Rb substrate); type: biochemical; settings: recombinant cdk2/cyclin E, 10 μM ATP, 30 min at 30° C., several values in a cell = separate determinations, read-out: CDK-2 Inhibition IC50
T1 construct: made in house; host or cells: insect cells (baculovirus co-infection)
Description: Substrate: GST-Rb as described above for cdk4/cyclin D1
Assay conditions for cdk2/cyclin E were identical to those for cdk4/cyclin D1 including the substrate. The concentration of recombinant cdk2/cyclin E in the assay was 0.1 μg per 100 μl assay. Incubation was for 30 min at 30° C.

PC-3 = assay: In vitro tumor cell proliferation, PC-3; type: cell-based, human; settings: many values given with an undefined *, read-out: In vitro Tumor Cell Proliferation (IC50, μM) Prostate PC-3
Summary of the method: as §1

cdk4/cyclin D1 = target: T2, cdk4/cyclin D1 (Homo sapiens, UniProt P11802); assay: Cyclin-dependent Kinase 4 Assay (cdk4/cyclin D1, GST-Rb substrate); type: biochemical; settings: cdk4/cyclin D1 insect cell lysate, 10 μM ATP, 30 min at 37° C., several values = separate determinations, read-out: CDK4 Inhibition IC50
T2 construct: made in house; host or cells: Sf9 insect cells (Bac-to-Bac baculovirus, pFastBac)
T2 sequence (P11802 whole entry): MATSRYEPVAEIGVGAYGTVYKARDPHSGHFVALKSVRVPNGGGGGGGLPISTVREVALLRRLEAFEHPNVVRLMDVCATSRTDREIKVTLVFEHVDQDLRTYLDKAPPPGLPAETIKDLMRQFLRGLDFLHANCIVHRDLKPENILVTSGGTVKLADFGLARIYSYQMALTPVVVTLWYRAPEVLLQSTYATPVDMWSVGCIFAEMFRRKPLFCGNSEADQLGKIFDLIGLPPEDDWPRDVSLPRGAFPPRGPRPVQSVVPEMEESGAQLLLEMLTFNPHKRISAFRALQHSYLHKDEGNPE
T2 sequence (P24385 whole entry partner): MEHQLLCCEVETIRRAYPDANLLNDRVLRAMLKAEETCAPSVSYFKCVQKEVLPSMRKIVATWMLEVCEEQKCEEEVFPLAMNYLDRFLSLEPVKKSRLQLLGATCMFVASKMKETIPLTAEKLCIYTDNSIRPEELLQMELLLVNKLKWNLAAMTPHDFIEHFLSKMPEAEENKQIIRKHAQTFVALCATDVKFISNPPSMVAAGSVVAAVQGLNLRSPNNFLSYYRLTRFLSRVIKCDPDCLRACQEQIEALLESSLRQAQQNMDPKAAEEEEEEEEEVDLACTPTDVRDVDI
Summary of the method: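 IC50 against cdk4 measured by scintillation counting of bead-bound GST-Rb (0.5 μg) after filtration and four TNEN washes. Reaction was 30 min at 37 °C in HEPES pH 7.5 buffer with 10 mM MgCl2 and 1 mM EGTA. Enzyme source was 0.1 μg Sf9 lysate coinfected with cdk4 and cyclin D1.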

HT-29 = assay: In vitro tumor cell proliferation, HT-29; type: cell-based, human; settings: many values given with an undefined *, read-out: In vitro Tumor Cell Proliferation (IC50, μM) Colon HT-29
Summary of the method: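 Growth was quantified either with CyQUANT, plates frozen at −80° C after 3 days of drug, or by sulforhodamine B staining of TCA-fixed cells after 3 days of drug plus 4 days with fresh drug. Trypan blue-excluding HT-29 cells were plated overnight at 37° C before dosing.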

Colo-205 = assay: In vitro tumor cell proliferation, Colo-205; type: cell-based; settings: values given with an undefined *, read-out: In vitro Tumor Cell Proliferation (IC50, μM) Colon Colo-205
Summary of the method: as §1

DU145 = assay: In vitro tumor cell proliferation, DU145; type: cell-based, human; settings: many values given with an undefined *, read-out: In vitro Tumor Cell Proliferation (IC50, μM) Prostate DU145
Summary of the method: as §1

MDA-MB-231 = assay: In vitro tumor cell proliferation, MDA-MB-231; type: cell-based, human; settings: sulforhodamine B or CyQUANT assay, many values given with an undefined *, read-out: In vitro Tumor Cell Proliferation (IC50, μM) Breast MDA-MB-231
Summary of the method: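 Proliferation quantified by SRB staining of TCA-fixed cells after 3 days of drug plus 4 days with replenished drug, following overnight attachment at 37 °C.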

A549 = assay: In vitro tumor cell proliferation, A549; type: cell-based, human; settings: many values given with an undefined *, read-out: In vitro Tumor Cell Proliferation (IC50, μM) Lung A549
Summary of the method: as §1

[1] = Homo sapiens, MDA-MB-435, MDA-MB-435
[2] = Homo sapiens, COLO 205, Colo-205
[3] = Homo sapiens, MDA-MB-231, MDA-MB-231

| Molecule | IC50 (MDA-MB-435; [1]) [µM] | IC50 (MDA-MB-435; MDA-MB-435, trihydrochloride) [µM] | IC50 (DMS-114; DMS-114, trihydrochloride) [µM] | IC50 (DMS-114; Homo sapiens, DMS-114, DMS-114) [µM] | pIC50 (cdk2/cyclin E) | IC50 (PC-3; Homo sapiens, PC-3, PC-3) [µM] | IC50 (PC-3; PC-3, trihydrochloride) [µM] | pIC50 (cdk4/cyclin D1) | IC50 (HT-29; HT-29, trihydrochloride) [µM] | IC50 (HT-29; Homo sapiens, HT-29, HT-29) [µM] | IC50 (Colo-205; Colo-205, trihydrochloride) [µM] | IC50 (Colo-205; [2]) [µM] | IC50 (DU145; DU145, trihydrochloride) [µM] | IC50 (DU145; Homo sapiens, DU-145, DU145) [µM] | IC50 (MDA-MB-231; [3]) [µM] | IC50 (MDA-MB-231; MDA-MB-231, trihydrochloride) [µM] | IC50 (A549; A549, trihydrochloride) [µM] | IC50 (A549; Homo sapiens, A549, A549) [µM] | IC50 (DMS-114; DMS-114, dihydrochloride) [µM] | IC50 (PC-3; PC-3, dihydrochloride) [µM] | also measured |
| --- | --- | --- | --- | --- | --- | --- | --- | --- | --- | --- | --- | --- | --- | --- | --- | --- | --- | --- | --- | --- | --- |
| N[C@H]1CC[C@H](Nc2nc(NC3CCN(Cc4ccc(Cl)c(Cl)c4)CC3)c3ncn(C4CCCC4)c3n2)CC1 [Example 147-o, 2-[Trans-(4-aminocyclohexyl)amino]-6-[4-[1-(3,4-dichlorobenzyl)]piperidinylamino]-9-cyclopentylpurine trihydrochloride] | 0.92 | 1.1 | 0.71 | 0.78 | 6.70 and 6.80 | 0.64 | 0.92 | 5.74 | 0.77 | 0.83 | 0.45 | 0.63 | 0.69 | 0.76 | 0.77 | 0.9 | 0.44 | 0.42 | – | – | – |
| 2-[Trans-(4-aminocyclohexyl)amino]-6-[4-(1-(4-methylbenzyl))piperidinylamino]-9-cyclopentylpurine [Example 40] | – | – | – | – | 6.64 and 6.77 | – | – | 6.00 and 5.70 | – | – | – | – | – | – | – | – | – | – | – | – | IC50 (MDA-MB-435; MDA-MB-435): 0.27 µM; IC50 (DMS-114; DMS-114): 0.26 µM; IC50 (PC-3; PC-3): 0.34 µM; IC50 (HT-29; HT-29): 0.29 µM and 0.27 µM; IC50 (Colo-205; Colo-205): 0.16 µM and 0.18 µM; IC50 (DU145; DU145): 0.24 µM; IC50 (MDA-MB-231; MDA-MB-231): 0.19 µM and 0.28 µM; IC50 (A549; A549): 0.18 µM |
| Cc1ccccc1CN1CCC(Nc2nc(N[C@H]3CC[C@H](N)CC3)nc3c2ncn3C2CCCC2)CC1 [Example 44, 2-[Trans-(4-aminocyclohexyl)amino]-6-[4-(1-(2-methylbenzyl))piperidinylamino]-9-cyclopentylpurine] | 0.24 | – | – | 0.28 | 6.64 and 6.89 and 6.47 | 0.16 | – | 5.64 | – | 0.22 | – | 0.16 | – | 0.16 | 0.2 | – | – | 0.15 | – | – | IC50 (MDA-MB-435; MDA-MB-435): 0.27 µM; IC50 (DMS-114; DMS-114): 0.21 µM; IC50 (PC-3; PC-3): 0.22 µM; IC50 (Colo-205; Colo-205): 0.17 µM; IC50 (MDA-MB-231; MDA-MB-231): 0.22 µM; IC50 (A549; A549): 0.09 µM |
| N[C@H]1CC[C@H](Nc2nc(NC3CCN(Cc4ccc(F)c(F)c4)CC3)c3ncn(C4CCCC4)c3n2)CC1 [Example 147-u, 2-[Trans-(4-aminocyclohexyl)amino]-6-[4-[1-(3,4-difluorobenzyl)]piperidinylamino]-9-cyclopentylpurine trihydrochloride] | 0.47 | 0.48 | 0.35 | 0.62 | 6.82 and 6.96 | 0.35 | 0.43 | 5.55 and 5.59 | 0.33 | 0.41 | 0.22 | 0.28 | 0.28 | 0.38 | 0.33 | 0.36 | 0.19 | 0.27 | – | – | – |

Continued by falling IC50 (PC-3; Homo sapiens, PC-3, PC-3), values first:

| IC50 (MDA-MB-435; [1]) [µM] | IC50 (MDA-MB-435; MDA-MB-435, trihydrochloride) [µM] | IC50 (DMS-114; DMS-114, trihydrochloride) [µM] | IC50 (DMS-114; Homo sapiens, DMS-114, DMS-114) [µM] | pIC50 (cdk2/cyclin E) | IC50 (PC-3; Homo sapiens, PC-3, PC-3) [µM] | IC50 (PC-3; PC-3, trihydrochloride) [µM] | pIC50 (cdk4/cyclin D1) | IC50 (HT-29; HT-29, trihydrochloride) [µM] | IC50 (HT-29; Homo sapiens, HT-29, HT-29) [µM] | IC50 (Colo-205; Colo-205, trihydrochloride) [µM] | IC50 (Colo-205; [2]) [µM] | IC50 (DU145; DU145, trihydrochloride) [µM] | IC50 (DU145; Homo sapiens, DU-145, DU145) [µM] | IC50 (MDA-MB-231; [3]) [µM] | IC50 (MDA-MB-231; MDA-MB-231, trihydrochloride) [µM] | IC50 (A549; A549, trihydrochloride) [µM] | IC50 (A549; Homo sapiens, A549, A549) [µM] | IC50 (DMS-114; DMS-114, dihydrochloride) [µM] | IC50 (PC-3; PC-3, dihydrochloride) [µM] | Molecule | also measured |
| --- | --- | --- | --- | --- | --- | --- | --- | --- | --- | --- | --- | --- | --- | --- | --- | --- | --- | --- | --- | --- | --- |
| – | – | – | – | 6.79 | 11 | – | 5.80 and 6.09 and 6.30 | – | 16 | – | 12 | – | 12 | – | – | – | 12 | 11 | 10 | N[C@H]1CC[C@H](Nc2nc(NC3(CO)CCCC3)c3ncn(C4CCCC4)c3n2)CC1 [Example 146, (R,S)-2-[Trans-(4-aminocyclohexyl)amino]-6-[(1-hydroxymethyl)cyclopentylamino]-9-cyclopentylpurine dihydrochloride] | IC50 (MDA-MB-435; MDA-MB-435, dihydrochloride): 21 µM; IC50 (HT-29; HT-29, dihydrochloride): 11 µM; IC50 (DU145; DU145, dihydrochloride): 16 µM; IC50 (MDA-MB-231; MDA-MB-231, dihydrochloride): 12 µM |
| > 10 | – | – | 1 | 6.78 | 0.41 | – | 5.41 and 5.70 | – | 0.87 | – | 0.76 | – | 3.5 | 0.7 | – | – | 1.2 | 1.4 | 0.28 | COc1ccc2[nH]cc(CCNc3nc(N[C@H]4CC[C@H](N)CC4)nc4c3ncn4C3CCCC3)c2c1 [Example 9, 2-[Trans-(4-aminocyclohexyl)amino]-6-[(3-(5-methoxyindolyl))-2-ethylamino]-9-cyclopentylpurine dihydrochloride] | IC50 (HT-29; HT-29, dihydrochloride): 0.96 µM; IC50 (Colo-205; Colo-205, dihydrochloride): 0.94 µM; IC50 (DU145; DU145, dihydrochloride): 4 µM; IC50 (MDA-MB-231; MDA-MB-231, dihydrochloride): 1.1 µM; IC50 (A549; A549, dihydrochloride): 2 µM |
